These results are taken from US20240124432A1, “HERBICIDAL COMPOUNDS” (SYNGENTA CROP PROTECTION AG, priority 2020, published 2024).

Format in all cases: in vivo
For test [1], the system named is AMAPA. The test is described as follows: Pre-emergence biological efficacy. The note with it: Amaranthus palmeri, 312 h, evaluated after 13 days, read-out: damage to plant (100=total damage to plant; 0=no damage to plant). In a few lines:
(§1)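 Scoring: visual plant damage at 13 days after spraying, 100 = total damage, 0 = none. Pots were sprayed 1 day post-sowing with an aqueous dilution (0.2% Genapol XO80) of an IF50/acetone formulation; glasshouse 24/18 °C, 15 h light, 50% humidity, watered twice daily.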

The test system of test [2] is EPHHL. Kind of test: Pre-emergence biological efficacy. The note with it: Euphorbia heterophylla, 312 h, evaluated after 13 days, read-out: damage to plant (100=total damage to plant; 0=no damage to plant). In a few lines:
as §1

Test [3] deals with LOLPE. The test is described as follows: Pre-emergence biological efficacy. The note with it: Lolium perenne, 312 h, evaluated after 13 days, read-out: damage to plant (100=total damage to plant; 0=no damage to plant). The method in brief:
as §1

Test [4] concerns SETFA. Kind of test: Pre-emergence biological efficacy. The note with it: Setaria faberi, 312 h, evaluated after 13 days, read-out: damage to plant (100=total damage to plant; 0=no damage to plant). In a few lines: as §1
Test [5] deals with IPOHE. The test is described as follows: Pre-emergence biological efficacy. The note with it: Ipomoea hederacea, 312 h, evaluated after 13 days, read-out: damage to plant (100=total damage to plant; 0=no damage to plant). In a few lines:
as §1

The test system of test [6] is ECHCG. Kind of test: Pre-emergence biological efficacy. Particulars: Echinochloa crus-galli, 312 h, evaluated after 13 days, read-out: damage to plant (100=total damage to plant; 0=no damage to plant). In a few lines: as §1
Another test deals with DIGSA. The test is described as follows: Post-emergence biological efficacy. The note with it: Digitaria sanguinalis, 312 h, evaluated after 13 days, read-out: damage to plant (100=total damage to plant; 0=no damage to plant). The method in brief: (§2)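 Plants grown 14 days in glasshouse, then sprayed post-emergence with compound formulated in IF50 and diluted in 0.2% Genapol XO80 to the desired dose. Damage scored after 13 days on a 0–100 scale (100 = total damage).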

Test [7] relates to AMAPA. Kind of test: Post-emergence biological efficacy. The note with it: Amaranthus palmeri, 312 h, evaluated after 13 days, read-out: damage to plant (100=total damage to plant; 0=no damage to plant). In a few lines:
as §2

In the next test the test system is CHEAL. The test is described as follows: Post-emergence biological efficacy. Particulars: Chenopodium album, 312 h, evaluated after 13 days, read-out: damage to plant (100=total damage to plant; 0=no damage to plant). In a few lines: as §2
Test [8] relates to EPHHL. The test is described as follows: Post-emergence biological efficacy. Particulars: Euphorbia heterophylla, 312 h, evaluated after 13 days, read-out: damage to plant (100=total damage to plant; 0=no damage to plant). The method in brief: as §2
Test [9] concerns LOLPE. Kind of test: Post-emergence biological efficacy. The note with it: Lolium perenne, 312 h, evaluated after 13 days, read-out: damage to plant (100=total damage to plant; 0=no damage to plant). The method in brief:
as §2

A further test deals with ELEIN. Kind of test: Post-emergence biological efficacy. The note with it: 312 h, evaluated after 13 days, read-out: damage to plant (100=total damage to plant; 0=no damage to plant). The method in brief:
as §2

The test system of test [10] is SETFA. Kind of test: Post-emergence biological efficacy. The note with it: Setaria faberi, 312 h, evaluated after 13 days, read-out: damage to plant (100=total damage to plant; 0=no damage to plant). In a few lines: as §2
Test [11] has as its system IPOHE. The test is described as follows: Post-emergence biological efficacy. Particulars: Ipomoea hederacea, 312 h, evaluated after 13 days, read-out: damage to plant (100=total damage to plant; 0=no damage to plant). In a few lines:
as §2

Test [12] relates to ECHCG. The test is described as follows: Post-emergence biological efficacy. Particulars: Echinochloa crus-galli, 312 h, evaluated after 13 days, read-out: damage to plant (100=total damage to plant; 0=no damage to plant). The method in brief: as §2

In the case of `CCOC(=O)C1(C)CC(c2cc(-c3cnc(F)c(OC)c3)c(F)cc2Cl)=NO1` (stereo not drawn) [Compound 1-415, Ethyl 3-[2-chloro-4-fluoro-5-(6-fluoro-5-methoxy-3-pyridyl)-phenyl]-5-methyl-4H-isoxazole-5-carboxylate], the pest or weed control at 250 g/ha in the test on AMAPA [1], in the test with EPHHL [2], in the test with LOLPE [3], in the test on SETFA [4], in the test with IPOHE [5] and with ECHCG [6] was 0% each time. Also, the pest or weed control at 250 g/ha in the test with DIGSA was 40%; in the test with AMAPA [7], 100%; in the test with CHEAL it was 100%; in the test with EPHHL [8] it was 90%; in the test on LOLPE [9] it was 20%; in the test on ELEIN it was 70%. Moreover, the pest or weed control at 250 g/ha was determined as 90% in the test on SETFA [10], 90% in the test with IPOHE [11] and 70% in the test with ECHCG [12].

In the case of `CCOC(=O)C1(C)CC(c2cc(-c3cnc(Cl)c(Cl)c3)c(F)cc2Cl)=NO1` (stereo not drawn) [Compound 1-427, Ethyl 3-[2-chloro-5-(5,6-dichloro-3-pyridyl)-4-fluoro-phenyl]-5-methyl-4H-isoxazole-5-carboxylate], the pest or weed control at 250 g/ha in the test with AMAPA [1], with EPHHL [2], in the test with LOLPE [3], with SETFA [4], with IPOHE [5] and with ECHCG [6] was 0% throughout. For the same compound, the pest or weed control at 250 g/ha in the test on DIGSA was 40%; with AMAPA [7], 100%; in the test with CHEAL, 60%; with EPHHL [8], 70%; in the test on LOLPE [9], 20%; with ELEIN, 60%. Further, the figures for the pest or weed control at 250 g/ha in the test with SETFA [10], with IPOHE [11] and with ECHCG [12] were 100%, 80% and 80%, respectively.

On to `CCOC(=O)C1(C)CC(c2cc(-c3cnc4ccccc4c3)c(F)cc2Cl)=NO1` (stereo not drawn) [Compound 1-439, Ethyl 3-[2-chloro-4-fluoro-5-(3-quinolyl)-phenyl]-5-methyl-4H-isoxazole-5-carboxylate], for which the pest or weed control at 250 g/ha is 50% in the test on AMAPA [1]; 10% in the test on EPHHL [2]; 20% in the test on LOLPE [3]; 20% with SETFA [4]; 10% in the test with IPOHE [5]; 30% in the test with ECHCG [6]. For the same compound, the pest or weed control at 250 g/ha with DIGSA is 30%; in the test on AMAPA [7], 70%; in the test on CHEAL it was 50%; in the test on EPHHL [8], 40%; in the test with LOLPE [9] it was 20%; in the test with ELEIN it was 50%. Further, the pest or weed control at 250 g/ha with SETFA [10] worked out at 30%; in the test on IPOHE [11], 40%; with ECHCG [12], 30%.

As to `CCOC(=O)C1(C)CC(c2cc(-c3cnc4c(c3)OC(F)(F)O4)c(F)cc2Cl)=NO1` (stereo not drawn) [Compound 1-451, Ethyl 3-[2-chloro-5-(2,2-difluoro-[1,3]dioxolo[4,5-b]pyridin-6-yl)-4-fluoro-phenyl]-5-methyl-4H-isoxazole-5-carboxylate], the pest or weed control at 250 g/ha in the test with AMAPA [1] was found to be 90%; with EPHHL [2] it was 80%; in the test with LOLPE [3] it was 40%; in the test on SETFA [4], 40%; in the test on IPOHE [5], 50%; in the test with ECHCG [6] it was 40%. The pest or weed control at 250 g/ha in the test with DIGSA, in the test with AMAPA [7], with CHEAL, in the test with EPHHL [8], in the test with LOLPE [9] and with ELEIN was 100% in each case. In addition, the pest or weed control at 250 g/ha in the test with SETFA [10], with IPOHE [11] and with ECHCG [12] was 100% each time.
